Results as given in patent US7989445B2, “Thienopyrimidone compound” (Takeda Pharmaceutical Company Limited, priority 2005, dated 2011).
Counter-ions that a name gives are not always drawn.

A melting point of over 300 °C was found for `CNCc1ccc(CCn2cnc3cc(-c4ccc(Cl)cc4)sc3c2=O)cc1` (as salt: hydrochloride) [Example 4, 6-(4-chlorophenyl)-3-(2-{4-[(methylamino)methyl]phenyl}ethyl)thieno[3,2-d]pyrimidin-4(3H)-one dihydrochloride] in this work. A melting point of 252 to 253 °C was found for `CN(CC(=O)O)Cc1ccc(CCn2cnc3cc(-c4ccc(Cl)cc4)sc3c2=O)cc1` (as salt: hydrochloride) [Example 30, N-(4-{2-[6-(4-chlorophenyl)-4-oxothieno[3,2-d]pyrimidin-3(4H) -yl]ethyl}benzyl)-N-methylglycine dihydrochloride] in this work. A melting point of 271 to 278 °C was found for `O=C1CNCCN1Cc1ccc(CCn2cnc3cc(-c4ccc(Cl)cc4)sc3c2=O)cc1` (as salt: hydrochloride) [Example 38, 6-(4-chlorophenyl)-3-(2-{4-[(2-oxopiperazin-1-yl)methyl]phenyl}ethyl)thieno[3,2-d]pyrimidin-4(3H)-one dihydrochloride] in this work. A melting point of 206 to 209 °C was found for `CN(Cc1ccc(CCn2cnc3cc(-c4ccc(Cl)cc4)sc3c2=O)cc1)C(=O)OC(C)(C)C` [Example 3, tert-butyl N-(4-{2-[6-(4-chlorophenyl)-4-oxothieno[3,2-d]pyrimidin-3(4H)-yl]ethyl}benzyl)-N-methylcarbamate] in this work. A melting point of 181 °C was found for `CN(Cc1ccc(CCn2cnc3cc(-c4ccc(Cl)cc4)sc3c2=O)cc1)C(=O)CC(C)(C)C` [Example 5, N-(4-{2-[6-(4-chlorophenyl)-4-oxothieno[3,2-d]pyrimidin-3(4H)-yl]ethyl}benzyl)-N,3,3-trimethylbutanamide] in this work. A melting point of 178 °C was found for `CN(Cc1ccc(CCn2cnc3cc(-c4ccc(Cl)cc4)sc3c2=O)cc1)C(=O)C1CC1` [Example 7, N-(4-{2-[6-(4-chlorophenyl)-4-oxothieno[3,2-d]pyrimidin-3(4H) -yl]ethyl}benzyl)-N-methylcyclopropanecarboxamide] in this work. A melting point of 160 to 165 °C was found for `CN(C)C(=O)N(C)Cc1ccc(CCn2cnc3cc(-c4ccc(Cl)cc4)sc3c2=O)cc1` [Example 8, N-(4-{2-[6-(4-chlorophenyl)-4-oxothieno[3,2-d]pyrimidin-3(4H) -yl]ethyl}benzyl)-N,N′,N′-trimethylurea] in this work. A melting point of 285 to 287 °C was found for `O=C(Cn1cnc2cc(-c3ccc(Cl)cc3)sc2c1=O)c1ccc2c(c1)CCN(C(=O)C(F)(F)F)CC2` [Example 10, 6-(4-chlorophenyl)-3-{2-oxo-2-[3-(trifluoroacetyl) -2,3,4,5-tetrahydro-1H-3-benzazepin-7-yl]ethyl}thieno[3,2-d]pyrimidin-4(3H)-one] in this work. A melting point of 235 to 238 °C was found for `CN(Cc1ccc(C(=O)Cn2cnc3cc(-c4ccc(Cl)cc4)sc3c2=O)cc1)C(=O)C(F)(F)F` [Example 12, N-(4-{[6-(4-chlorophenyl)-4-oxothieno[3,2-d]pyrimidin-3(4H) -yl]acetyl}benzyl)-2,2,2-trifluoro-N-methylacetamide] in this work. A melting point of 250 to 251 °C was found for `CC(=O)N(C)Cc1ccc(C(=O)Cn2cnc3cc(-c4ccc(Cl)cc4)sc3c2=O)cc1` [Example 14, N-(4-{[6-(4-chlorophenyl)-4-oxothieno[3,2-d]pyrimidin-3(4H) -yl]acetyl}benzyl)-N-methylacetamide] in this work. A melting point of 245 to 248 °C was found for `CN(C(=O)C(F)(F)F)C1Cc2ccc(C(=O)Cn3cnc4cc(-c5ccc(Cl)cc5)sc4c3=O)cc2C1` (centres unmarked) [Example 15, N-(5-{[6-(4-chlorophenyl)-4-oxothieno[3,2-d]pyrimidin-3(4H) -yl]acetyl}-2,3-dihydro-1H-inden-2-yl)-2,2,2-trifluoro-N -methylacetamide] in this work. A melting point of 226 to 229 °C was found for `CNC1Cc2ccc(C(=O)Cn3cnc4cc(-c5ccc(Cl)cc5)sc4c3=O)cc2C1` (centres unmarked) [Example 16, 6-(4-chlorophenyl)-3-{2-[2-(methylamino)-2,3-dihydro-1H-inden-5-yl]-2-oxoethyl}thieno[3,2-d]pyrimidin-4(3H)-one] in this work. A melting point of 160 to 163 °C was found for `CC(c1ccc(CCn2cnc3cc(-c4ccc(Cl)cc4)sc3c2=O)cc1)N1CC[C@H](F)C1` (stereo partly drawn) [Example 19, 6-(4-chlorophenyl)-3-[2-[4-[1-[(3S)-3-fluoropyrrolidin-1-yl]ethyl]phenyl]ethyl]thieno[3,2-d]pyrimidin-4(3H)-one] in this work. A melting point of 193 to 194 °C was found for `CC(=O)N(C)N(C(=O)OC(C)(C)C)c1ccc(CCn2cnc3cc(-c4ccc(Cl)cc4)sc3c2=O)cc1` [Example 20] in this work. A melting point of 230 to 232 °C was found for `CN(Cc1ccc(CCn2cnc3cc(-c4ccc(Cl)cc4)sc3c2=O)cc1)S(C)(=O)=O` [Example 24, N-(4-{2-[6-(4-chlorophenyl)-4-oxothieno[3,2-d]pyrimidin-3(4H) -yl]ethyl}benzyl)-N-methylmethanesulfonamide] in this work. A melting point of 199 to 201 °C was found for `O=C1CCCCN1Cc1ccc(CCn2cnc3cc(-c4ccc(Cl)cc4)sc3c2=O)cc1` [Example 25, 6-(4-chlorophenyl)-3-(2-{4-[(2-oxopiperidin-1-yl)methyl]phenyl}ethyl)thieno[3,2-d]pyrimidin-4(3H)-one] in this work. A melting point of 216 to 217 °C was found for `O=C1CCCCN1Cc1ccc(CCn2cnc3cc(-c4ccc(F)cc4)sc3c2=O)cc1` [Example 26, 6-(4-fluorophenyl)-3-(2-{4-[(2-oxopiperidin-1-yl)methyl]phenyl}ethyl)thieno[3,2-d]pyrimidin-4(3H)-one] in this work. A melting point of 166 to 169 °C was found for `CNCC(=O)N(C)Cc1ccc(CCn2cnc3cc(-c4ccc(Cl)cc4)sc3c2=O)cc1` [Example 28, N-(4-{2-[6-(4-chlorophenyl)-4-oxothieno[3,2-d]pyrimidin-3(4H) -yl]ethyl}benzyl)-N,N^2-dimethylglycinamide] in this work. A melting point of 130 °C was found for `CN(CC(=O)OC(C)(C)C)Cc1ccc(CCn2cnc3cc(-c4ccc(Cl)cc4)sc3c2=O)cc1` [Example 29, N-(4-{2-[6-(4-chlorophenyl)-4-oxothieno[3,2-d]pyrimidin-3(4H) -yl]ethyl}benzyl)-N-methylglycine tert-butyl ester] in this work. A melting point of 146 to 149 °C was found for `CNC(=O)CN(C)Cc1ccc(CCn2cnc3cc(-c4ccc(Cl)cc4)sc3c2=O)cc1` [Example 31, N^2-(4-{2-[6-(4-chlorophenyl)-4-oxothieno[3,2-d]pyrimidin-3(4H) -yl]ethyl}benzyl)-N,N^2-dimethylglycinamide] in this work. A melting point of 243 to 246 °C was found for `O=C1C[C@@H](O)CN1Cc1ccc(CCn2cnc3cc(-c4ccc(Cl)cc4)sc3c2=O)cc1` [Example 33, 6-(4-chlorophenyl)-3-[2-(4-{[(4R)-4-hydroxy-2-oxopyrrolidin-1-yl]methyl}phenyl)ethyl]thieno[3,2-d]pyrimidin-4(3H)-one] in this work. A melting point of 285 to 288 °C was found for `CCN1CCN(Cc2ccc(CCn3cnc4cc(-c5ccc(Cl)cc5)sc4c3=O)cc2)C(=O)C1=O` [Example 34, 1-(4-{2-[6-(4-chlorophenyl)-4-oxothieno[3,2-d]pyrimidin-3(4H) -yl]ethyl}benzyl)-4-ethylpiperazine-2,3-dione] in this work. A melting point of 232 to 234 °C was found for `O=C1CN(Cc2ccc(CCn3cnc4cc(-c5ccc(Cl)cc5)sc4c3=O)cc2)CCN1` [Example 35, 6-(4-chlorophenyl)-3-(2-{4-[(3-oxopiperazin-1-yl)methyl]phenyl}ethyl)thieno[3,2-d]pyrimidin-4(3H)-one] in this work. A melting point of 196 to 198 °C was found for `CC(=O)NC1CCN(Cc2ccc(CCn3cnc4cc(-c5ccc(Cl)cc5)sc4c3=O)cc2)C1` (centres unmarked) [Example 36, N-[1-(4-{2-[6-(4-chlorophenyl)-4-oxothieno[3,2-d]pyrimidin-3(4H)-yl]ethyl}benzyl)pyrrolidin-3-yl]acetamide] in this work. A melting point of 165 to 170 °C was found for `CC(C)(C)OC(=O)N1CCN(Cc2ccc(CCn3cnc4cc(-c5ccc(Cl)cc5)sc4c3=O)cc2)C(=O)C1` [Example 37, tert-butyl 4-(4-{2-[6-(4-chlorophenyl)-4-oxothieno[3,2-d]pyrimidin-3(4H)-yl]ethyl}benzyl)-3-oxopiperazine-1-carboxylate] in this work. A melting point of 204 to 207 °C was found for `CC(=O)N1CCN(Cc2ccc(CCn3cnc4cc(-c5ccc(Cl)cc5)sc4c3=O)cc2)C(=O)C1` [Example 39, 3-(2-{4-[(4-acetyl-2-oxopiperazin-1-yl)methyl]phenyl}ethyl)-6-(4-chlorophenyl)thieno[3,2-d]pyrimidin-4(3H)-one] in this work.
